Usually inhibition stands for the percentage by which the read-out fell short of the control. The % inhibition is the share of the control response that was lost under treatment. Read a high % inhibition as a response far below the control. The term IC50 denotes the concentration at which inhibition is half-maximal.

Like-named read-outs stand apart in the source and are kept apart here.

Assay [1] relates to SJ-G2. As to the kind of experiment: MTT cell growth inhibition: SJ-G2. The class given is cell-based. Particulars: SJ-G2 glioblastoma, 72 h, read-out: Percentage (%) Cell Growth Inhibition in response to 25 µM of Drug. As for the experimental part:
(§1) All test agents were prepared as stock solutions (20 mM) in dimethyl sulfoxide (DMSO) and stored at −20 °C. Cell lines used in the study included HT29 (colorectal carcinoma); U87, SJ-G2, (glioblastoma); MCF-7, (breast carcinoma); A2780 (ovarian carcinoma); H460 (lung carcinoma); A431 (skin carcinoma); Du145 (prostate carcinoma); BE2-C (neuroblastoma); MiaPaCa-2 (pancreatic carcinoma); and SMA560 (spontaneous murine astrocytoma), together with the one non-tumour-derived normal breast cell line (MCF10A). All cell lines were incubated in a humidified atmosphere 5% CO2 at 37 °C. The cancer cell lines were maintained in Dulbecco’s modified Eagle’s medium (DMEM; Sigma, Australia) supplemented with foetal bovine serum (10%), sodium pyruvate (10 mM), penicillin (100 IUmL^−1), streptomycin (100 µg mL^−1) and L-glutamine (2 mM).
(§2) Growth inhibition was determined by plating cells in duplicate in medium (100 µL) at a density of 2500–4000 cells per well in 96-well plates. On day 0 (24 h after plating), when the cells were in logarithmic growth, medium (100 µL) with or without the test agent was added to each well. After 72 h drug exposure, growth inhibitory effects were evaluated using the MTT (3-(4,5-dimethyltiazol-2-yl)-2,5-diphenyltetrazolium bromide) assay and absorbance read at 540 nm. The percentage growth inhibition was calculated at a fixed concentration of 25 µM, based on the difference between the optical density values on day 0 and those at the end of drug exposure. Each data point is the mean ± the standard error of the mean (SEM) calculated from three replicates which were performed on separate occasions and separate cell line passages.

The test system of assay [2] is almond β-glucosidase. As to the kind of experiment: Glycosidase inhibition, laboratory 2: almond β-glucosidase. The class given is biochemical. The settings on record: water. As for the experimental part:
All enzymes and para-nitrophenyl substrates were purchased from Sigma. Enzymes were assayed at 27 °C in 0.1 M citric acid/0.2 M disodium hydrogen phosphate buffers at the optimum pH for the enzyme. The incubation mixture consisted of 10 μL enzyme solution, 10 μL of 1 mg/mL aqueous solution of extract and 50 μL of the appropriate 5 mM para-nitrophenyl substrate made up in buffer at the optimum pH for the enzyme. The reactions were stopped by addition of 70 μL 0.4 M glycine (pH 10.4) during the exponential phase of the reaction, which had been determined at the beginning using uninhibited assays in which water replaced inhibitor. Final absorbances were read at 405 nm using a Versamax microplate reader (Molecular Devices). Assays were carried out in triplicate, and the values given are means of the three replicates per assay. All reactions run in water.

The test system of assay [3] is bovine liver β-galactosidase. The experiment in a line: Glycosidase inhibition, laboratory 1: bovine liver β-galactosidase. The class given is biochemical. Particulars: methanol. The text has this:
(§3) The enzymes α-glucosidase (from yeast), β-glucosidases (from almond and bovine liver), α-galactosidase (from coffee beans), β-galactosidase (from bovine liver), α-mannosidase (from Jack bean), β-mannosidase (from snail), α-L-rhamnosidase (from Penicillium decumbens), α-L-fucosidase (from bovine kidney), trehalase (from porcine kidney), β-glucuronidases (from E. coli and bovine liver), amyloglucosidase (from A. niger), para-nitrophenyl glycosides, and various disaccharides were purchased from Sigma-Aldrich Co (St Louis, MO, USA).
(§4) Brush border membranes were prepared from the rat small intestine according to the method of Kessler et al. and were assayed at pH 6.8 for rat intestinal maltase using maltose. For rat intestinal maltase, porcine kidney trehalase, and A. niger amyloglucosidase activities, the reaction mixture contained 25 mM maltose and the appropriate amount of enzyme, and the incubations were performed for 10–30 min at 37 °C. The reaction was stopped by heating at 100 °C for 3 min. After centrifugation (600× g; 10 min), the resulting reaction mixture was added to the Glucose CII-test Wako (Wako Pure Chemical Ind., Osaka, Japan). The absorbance at 505 nm was measured to determine the amount of the released D-glucose. Other glycosidase activities were determined using an appropriate para-nitrophenyl glycoside as substrate at the optimum pH of each enzyme. The reaction mixture contained 2 mM of the substrate and the appropriate amount of enzyme. The reaction was stopped by addition of 400 mM Na2CO3. The released para-nitrophenol was measured spectrometrically at 400 nm. All reactions run in methanol.

In assay [4] the target is T1, A. niger amyloglucosidase (Aspergillus niger, UniProt P69328).
T1 construct: purchased Sigma-Aldrich Co
T1 sequence (P69328 25-640): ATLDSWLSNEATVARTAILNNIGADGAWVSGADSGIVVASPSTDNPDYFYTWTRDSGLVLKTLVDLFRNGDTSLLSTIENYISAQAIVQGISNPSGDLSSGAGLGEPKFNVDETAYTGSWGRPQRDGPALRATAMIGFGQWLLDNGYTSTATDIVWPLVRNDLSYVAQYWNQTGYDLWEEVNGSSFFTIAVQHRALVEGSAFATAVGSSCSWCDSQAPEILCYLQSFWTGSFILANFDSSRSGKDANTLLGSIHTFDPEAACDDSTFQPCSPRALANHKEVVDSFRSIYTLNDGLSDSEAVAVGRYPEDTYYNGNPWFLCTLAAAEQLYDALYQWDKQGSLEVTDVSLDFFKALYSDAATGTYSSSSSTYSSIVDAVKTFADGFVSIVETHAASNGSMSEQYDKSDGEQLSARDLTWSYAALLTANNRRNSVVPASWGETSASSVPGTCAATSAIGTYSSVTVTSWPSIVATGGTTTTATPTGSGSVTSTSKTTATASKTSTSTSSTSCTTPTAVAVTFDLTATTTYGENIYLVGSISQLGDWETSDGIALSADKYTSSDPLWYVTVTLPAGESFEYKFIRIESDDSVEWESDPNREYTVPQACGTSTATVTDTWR
The experiment in a line: Glycosidase inhibition, laboratory 1: amyloglucosidase. Particulars: for inhibition at 10 µM: read-out: inhibition % at 10 μM; for inhibition at 100 µM: read-out: inhibition % at 100 μM. The class given is biochemical.
From the text: as §3, §4

Assay [5] deals with Du145. As to the kind of experiment: MTT cell growth inhibition: Du145. The class given is cell-based. Particulars: Homo sapiens, DU-145, Du145 prostate carcinoma, 72 h, read-out: Percentage (%) Cell Growth Inhibition in response to 25 µM of Drug. As for the experimental part:
as §1, §2

The test system of assay [6] is MCF-7. As to the kind of experiment: MTT cell growth inhibition: MCF-7. The class given is cell-based. Particulars: Homo sapiens, MCF-7 breast carcinoma; for GI50: MCF7, read-out: GI50 = Concentration (µM) that inhibits cell growth by 50%, dose response; for inhibition at 25 µM: MCF7, 72 h, MTT, read-out: Percentage (%) Cell Growth Inhibition in response to 25 µM of Drug. On the procedure:
as §1, §2

The test system of assay [7] is H460. As to the kind of experiment: MTT cell growth inhibition: H460. The class given is cell-based. The settings on record: Homo sapiens, H460 lung carcinoma; for GI50: NCI-H460, read-out: GI50 = Concentration (µM) that inhibits cell growth by 50%, dose response; for inhibition at 25 µM: NCI-H460, 72 h, MTT, read-out: Percentage (%) Cell Growth Inhibition in response to 25 µM of Drug. As for the experimental part: as §1, §2

Assay [8] concerns U87. The experiment in a line: MTT cell growth inhibition: U87. The class given is cell-based. Particulars: Homo sapiens, U-87 MG, U87 glioblastoma; for GI50: read-out: GI50 = Concentration (µM) that inhibits cell growth by 50%, dose response; for inhibition at 25 µM: 72 h, MTT, read-out: Percentage (%) Cell Growth Inhibition in response to 25 µM of Drug. As for the experimental part:
as §1, §2

Assay [9] has as its system A2780. The experiment in a line: MTT cell growth inhibition: A2780. The class given is cell-based. The settings on record: Homo sapiens, A2780 ovarian carcinoma; for GI50: read-out: GI50 = Concentration (µM) that inhibits cell growth by 50%, dose response; for inhibition at 25 µM: 72 h, MTT, read-out: Percentage (%) Cell Growth Inhibition in response to 25 µM of Drug. As for the experimental part: as §1, §2

Assay [10] relates to bovine liver β-glucuronidase. As to the kind of experiment: Glycosidase inhibition, laboratory 1: bovine liver β-glucuronidase. The class given is biochemical. Particulars: methanol.
From the text: as §3, §4

Assay [11] has as its target T2, bovine kidney α-L-fucosidase (Bos taurus, UniProt Q2KIM0).
T2 construct: purchased Sigma-Aldrich Co
T2 sequence (Q2KIM0 23-468): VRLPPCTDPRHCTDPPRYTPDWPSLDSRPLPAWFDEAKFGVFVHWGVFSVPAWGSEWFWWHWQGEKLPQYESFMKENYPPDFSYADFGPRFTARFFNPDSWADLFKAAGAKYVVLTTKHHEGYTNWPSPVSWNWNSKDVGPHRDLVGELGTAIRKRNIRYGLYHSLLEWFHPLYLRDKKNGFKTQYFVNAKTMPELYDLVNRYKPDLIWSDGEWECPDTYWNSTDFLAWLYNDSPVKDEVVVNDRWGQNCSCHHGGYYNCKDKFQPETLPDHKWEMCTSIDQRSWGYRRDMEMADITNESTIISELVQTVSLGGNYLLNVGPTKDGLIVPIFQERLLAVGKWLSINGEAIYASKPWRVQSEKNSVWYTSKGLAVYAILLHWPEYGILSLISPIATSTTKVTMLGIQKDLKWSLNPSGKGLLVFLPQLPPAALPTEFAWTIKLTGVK
As to the kind of experiment: Glycosidase inhibition, laboratory 1: α-L-fucosidase. Particulars: methanol. The class given is biochemical.
From the text: as §3, §4

In the case of `CC1(C)OB(c2cccc(CN3C(=O)c4c(Cl)c(Cl)c(Cl)c(Cl)c4C3=O)c2)OC1(C)C` [meta 3, 4,5,6,7-Tetrachloro-2-(3-(4,4,5,5-tetramethyl-1,3,2-dioxaborolan-2-yl)benzyl)isoindoline-1,3-dione], the inhibition at 25 µM was 35 ± 4% in [1]; 43 ± 13% in [5]; 67 ± 7% in assay [6]; 42 ± 6% in assay [7]; 70 ± 8% in [8]; 70 ± 2% in assay [9]. Further, the “% inhibition at ~400 μM” value in assay [2] is listed as 19.3%. Also, the “inhibition % at 10 μM” value in [3] was “^cNI ^d (12.4%)”; in assay [10], “^cNI ^d (5.7%)”. Also, the results for the inhibition at 10 µM in assay [4] and in assay [11] were 3.2% and 4.7%, respectively. The GI50 was 23 ± 3.7 µM in assay [6], 33 ± 2.3 µM in [7], 19 ± 1.5 µM in assay [8] and 19 ± 0.33 µM in assay [9].
As to `CC1(C)OB(c2cccc(NC(=O)c3cc(Cl)c(Cl)c(Cl)c3Cl)c2)OC1(C)C` [meta 5, 2,3,4,5-tetrachloro-N-(3-(4,4,5,5-tetramethyl-1,3,2-dioxaborolan-2-yl)phenyl)benzamide], the inhibition at 25 µM was under 0% in assay [1]; under 0% in assay [5]; 16 ± 4% in [6]; 18 ± 6% in assay [7]; under 0% in assay [8]; 49 ± 4% in assay [9]. Moreover, the “% inhibition at ~400 μM” value in assay [2] was 18.7%. In [3], the midpoint of inhibition, the IC50, lay at 213 µM. Moreover, the inhibition at 100 µM turned out to be 2.8% in assay [4] (A. niger amyloglucosidase, 100 μM, methanol) and 3.3% in [11]. In addition, in [10], the “inhibition % at 100 μM” value is listed as “^aNI ^b (6.0%)”.
Consider `CC1(C)OB(c2ccccc2CNC(=O)c2cc(Cl)c(Cl)c(Cl)c2Cl)OC1(C)C` [ortho 8, 2,3,4,5-tetrachloro-N-(2-(4,4,5,5-tetramethyl-1,3,2-dioxaborolan-2-yl)benzyl)benzamide], for which the inhibition at 25 µM was under 0% in assay [1]; under 0% in assay [5]; under 0% in assay [6]; 0% in assay [7]; under 0% in assay [8]; 19 ± 10% in [9]. Also, the “% inhibition at ~400 μM” value in [2] was determined as 83.4%. Further, the IC50 in assay [3] worked out at 278 µM. In addition, the inhibition at 100 µM came out at 0% in assay [4] and 19.9% in assay [11]. Moreover, the “inhibition % at 100 μM” value in assay [10] was “^aNI ^b (16.3%)”.
As to `CC1(C)OB(c2ccccc2NC(=O)c2cc(Cl)c(Cl)c(Cl)c2Cl)OC1(C)C` [ortho 5, 2,3,4,5-Tetrachloro-N-(2-(4,4,5,5-tetramethyl-1,3,2-dioxaborolan-2-yl)phenyl)benzamide], the inhibition at 25 µM is 92 ± 5% in assay [1]; over 100% in assay [5]; over 100% in [6]; over 100% in assay [7]; 58 ± 5% in assay [8]; 97 ± 2% in assay [9]. The “% inhibition at ~400 μM” value in assay [2] is 21%. Further, the “inhibition % at 10 μM” value in assay [3] and in assay [10] was “^cNI ^d (0%)” each time. Also, the inhibition at 10 µM was 0% in assay [4] (A. niger amyloglucosidase, 10 μM, methanol) and 0% in assay [11]. The GI50 stood at 12 ± 1.2 µM in [6], 13 ± 1 µM in [7], 25 ± 2.6 µM in assay [8] and 16 ± 1.2 µM in assay [9].
Consider `CC1(C)OB(c2ccc(CN3C(=O)c4c(Cl)c(Cl)c(Cl)c(Cl)c4C3=O)cc2)OC1(C)C` [para 3, 4,5,6,7-Tetrachloro-2-(4-(4,4,5,5-tetramethyl-1,3,2-dioxaborolan-2-yl)benzyl)isoindoline-1,3-dione], for which the inhibition at 25 µM in assay [1] was over 100%; in [5], over 100%; in assay [6], over 100%; in assay [7], 100 ± 2%; in assay [8], over 100%; in [9], over 100%. For the same molecule, the “% inhibition at ~400 μM” value in assay [2] was found to be 15.4%. Besides, the figures for the inhibition at 100 µM in [4] and in assay [11] were 1% and 0%, respectively. Further, the GI50 was determined as 3 ± 1.3 µM in assay [6], 13 ± 0.33 µM in assay [7], 4.2 ± 1 µM in assay [8] and 11 ± 1.1 µM in [9]. Also, the “inhibition % at 100 μM” value in [10] is on record as “^aNI ^b (1.0%)”.
Take `N[C@@H](Cc1ccc(B(O)O)cc1)C(=O)O` [BPA, 4-borono-L-phenylalanine, reference compound]: the inhibition at 25 µM in assay [1] was 5 ± 8%; in assay [5], 19 ± 10%; in [6], under 0%; in [7] it was 7 ± 8%; in assay [8], under 0%; in assay [9], 4 ± 1%. The “% inhibition at ~400 μM” value in [2] (400 µM) is given as 3.9%. For the same molecule, the “inhibition % at 100 μM” value in [3] (100 μM) was “^cNI ^d (10.9%)”; in assay [10], “^cNI ^d (7.4%)”.

Values taken from publication PMC9182199, “Borylated 2,3,4,5-Tetrachlorophthalimide and Their 2,3,4,5-Tetrachlorobenzamide Analogues: Synthesis, Their Glycosidase Inhibition and Anticancer Properties in View to Boron Neutron Capture Therapy” (Molecules, 2022).
